Measurements taken from patent US4745124A, “Orally effective anti-hypertensive agents” (priority 1983, dated 1988).
Where a name gives a salt, the structure may show the parent alone. Read-outs that look alike come from different tables or passages of the source.

Tested on: pressor effects of angiotensin I
Assay: oral effectiveness: blood pressure response to angiotensin I in anesthetized rats
Format: in vivo, rat
Settings: for response vs control in vivo at 10 µmol/kg: Rattus norvegicus, oral 10 μmol/kg, Ex. 246, read-out: Blood Pressure Response to 400 ng/kg of Angiotensin I
Protocol: Rats (210-290 g body weight) were fasted overnight and then anesthetized with intraperitoneal pentobarbital, 50-60 mg/kg. Tracheostomy was performed and the animals were ventilated mechanically. A cannula was inserted into a femoral vein for injection of angiotensin I or II, and a second cannula was inserted into a common carotid artery for direct measurement of arterial blood pressure. Heparin, 1,000 units, was injected via the femoral vein to prevent coagulation. Blood pressure was measured with a pressure transducer connected to a polygraph. The rats were injected with 80 ng of angiotensin I or angiotensin II in 20 μl of 0.9 g % NaCl; an amount of antiotensin I or II sufficient to raise mean arterial blood pressure by 27-40 mm Hg. After the responsiveness of a given rat to angiotensins I and II was established, compound (I), at 2 or 5 mg/kg (drug dissolved in 0.5 ml of H2 O plus 10 μl of 1N NaHCO3), was given via a stomach tube. At timed intervals, the effects of 80 ng of angiotensin I or angiotensin II on mean arterial blood pressure were tested.
Rats were prepared as described in Example 222. Compound (II) [N-benzoyl-L-phenylalanylthiopropanoyl)-L-proline] was given orally, via a stomach tube, at a dose of 12 mg/kg or 20 mg/kg. Compound (II) was dissolved in 0.5 ml of H2 O plus 10 μl of 1N NaHCO3. In all other respects, the experimental preparations were exactly as described in Example 222.
Rats (210-290 g body weight) were fasted overnight and then anesthetized with intraperitoneal pentobarbital, 50-60 mg/kg. Tracheostomy was performed and the animals were ventilated mechanically. A cannula was inserted into a femoral vein for injection of angiotensin I or II, and a second cannula was inserted into a common carotid artery for direct measurement of arterial blood pressure. Heparin, 1,000 units, was injected via the femoral vein to prevent coagulation. Blood pressure was measured with a pressure transducer connected to a polygraph. The rats were injected with 160 ng of angiotensin I or 80 ng of angiotensin II in 20 μl of 0.9 g % NaCl; an amount of angiotensin I or II sufficient to raise mean arterial blood pressure by 27-40 mm Hg. After the responsiveness of a given rat to angiotensins I and II was established, compound (B) at 10 mg (drug dissolved in 0.5 ml of H2 O plus 10 μl of 1N NaHCO3), was given via a stomach tube. At timed intervals, the effects of 160 ng of angiotensin I or 80 ng of angiotensin II on mean arterial blood pressure were tested. Results are shown below:
Rats (210-290 g body weight) were fasted overnight and then anesthetized with intraperitoneal pentobarbital, 50-60 mg/kg. Tracheostomy was performed and the animals were ventilated mechanically. A cannula was inserted into a femoral vein for injection of angiotensin I, and a second cannula was inserted into a common carotid artery for direct measurement of arterial blood pressure. Heparin, 1,000 units, was injected via the femoral vein to prevent coagulation. Blood pressure was measured with a pressure transducer connected to a polygraph. The rats were injected with 400 ng/kg of angiotensin I in 20 μl of 0.9 g % NaCl; an amount of angiotensin I sufficient to raise mean arterial blood pressure by 39 mm Hg. After the responsiveness of a given rat to angiotensin I was established, the named compound at 17 μmol/kg (drug dissolved in 0.15 ml of H2 O plus 10 μl of 1N NaHCO3), was given via a stomach tube. At timed intervals, the effects of 400 ng/kg of angiotensin I on mean arterial blood pressure were tested. Results are shown below:
Rats (190-290 g body weight) were fasted overnight and then anesthetized with intraperitoneal pentobarbital, 50-60 mg/kg. Tracheostomy was performed and the animals were ventilated mechanically. A cannula was inserted into a femoral vein for injection of angtiotensin I, and a second cannula was inserted into a common carotid artery for direct measurement of arterial blood pressure. […]

C[C@H](CSC(=O)[C@@H](N)Cc1ccccc1)C(=O)N1CCC[C@H]1C(=O)O [N-alpha-(3-L-phenylalanylthio-2-D-methylpropanoyl)-L-proline]
Blood Pressure Response to 400 ng/kg of Angiotensin I (oral 20 μmol/kg, 6 min, Ex. 237): 77 % of Control
Blood Pressure Response to 400 ng/kg of Angiotensin I (oral 20 μmol/kg, 10 min, Ex. 237): 69 % of Control
Blood Pressure Response to 400 ng/kg of Angiotensin I (oral 20 μmol/kg, 19 min, Ex. 237): 46 % of Control
Blood Pressure Response to 400 ng/kg of Angiotensin I (oral 20 μmol/kg, 25 min, Ex. 237): 38 % of Control
Blood Pressure Response to 400 ng/kg of Angiotensin I (oral 20 μmol/kg, 29 min, Ex. 237): 38 % of Control
Blood Pressure Response to 400 ng/kg of Angiotensin I (oral 20 μmol/kg, 38 min, Ex. 237): 33 % of Control
Blood Pressure Response to 400 ng/kg of Angiotensin I (oral 20 μmol/kg, 50 min, Ex. 237): 33 % of Control
Blood Pressure Response to 400 ng/kg of Angiotensin I (oral 20 μmol/kg, 57 min, Ex. 237): 31 % of Control
Blood Pressure Response to 400 ng/kg of Angiotensin I (oral 20 μmol/kg, 65 min, Ex. 237): 31 % of Control
Blood Pressure Response to 400 ng/kg of Angiotensin I (oral 20 μmol/kg, 74 min, Ex. 237): 26 % of Control
Blood Pressure Response to 400 ng/kg of Angiotensin I (oral 20 μmol/kg, 88 min, Ex. 237): 36 % of Control

CC(=O)N[C@@H](Cc1ccccc1)C(=O)SC[C@@H](C)C(=O)N1CCC[C@H]1C(=O)O [N-alpha-[3-(N-alpha-acetyl-L-phenylalanylthio)-2-D-methylpropanoyl]-L-proline]
Blood Pressure Response to 400 ng/kg of Angiotensin I (oral 13.6 μmole/kg, 3 min, Ex. 235): 40 % of Control
Blood Pressure Response to 400 ng/kg of Angiotensin I (oral 13.6 μmole/kg, 7 min, Ex. 235): 40 % of Control
Blood Pressure Response to 400 ng/kg of Angiotensin I (oral 13.6 μmole/kg, 13 min, Ex. 235): 28 % of Control
Blood Pressure Response to 400 ng/kg of Angiotensin I (oral 13.6 μmole/kg, 18 min, Ex. 235): 24 % of Control
Blood Pressure Response to 400 ng/kg of Angiotensin I (oral 13.6 μmole/kg, 23 min, Ex. 235): 20 % of Control
Blood Pressure Response to 400 ng/kg of Angiotensin I (oral 13.6 μmole/kg, 31 min, Ex. 235): 18 % of Control
Blood Pressure Response to 400 ng/kg of Angiotensin I (oral 13.6 μmole/kg, 34 min, Ex. 235): 20 % of Control
Blood Pressure Response to 400 ng/kg of Angiotensin I (oral 13.6 μmole/kg, 42 min, Ex. 235): 20 % of Control
Blood Pressure Response to 400 ng/kg of Angiotensin I (oral 13.6 μmole/kg, 48 min, Ex. 235): 16 % of Control
Blood Pressure Response to 400 ng/kg of Angiotensin I (oral 13.6 μmole/kg, 58 min, Ex. 235): 16 % of Control
Blood Pressure Response to 400 ng/kg of Angiotensin I (oral 13.6 μmole/kg, 67 min, Ex. 235): 20 % of Control
Blood Pressure Response to 400 ng/kg of Angiotensin I (oral 13.6 μmole/kg, 80 min, Ex. 235): 20 % of Control
Blood Pressure Response to 400 ng/kg of Angiotensin I (oral 13.6 μmole/kg, 90 min, Ex. 235): 18 % of Control
Blood Pressure Response to 400 ng/kg of Angiotensin I (oral 13.6 μmole/kg, 100 min, Ex. 235): 16 % of Control
Blood Pressure Response to 400 ng/kg of Angiotensin I (oral 13.6 μmole/kg, 112 min, Ex. 235): 20 % of Control
Blood Pressure Response to 400 ng/kg of Angiotensin I (oral 13.6 μmole/kg, 125 min, Ex. 235): 20 % of Control
Blood Pressure Response to 400 ng/kg of Angiotensin I (oral 13.6 μmole/kg, 137 min, Ex. 235): 30 % of Control
Blood Pressure Response to 400 ng/kg of Angiotensin I (oral 13.6 μmole/kg, 167 min, Ex. 235): 50 % of Control

C[C@H](CSC(=O)[C@H](Cc1ccccc1)NC(=O)C1CCCC1)C(=O)N1CCC[C@H]1C(=O)O [N-alpha-[3-(N-alpha-cyclopentylcarbonyl-L-phenylalanylthio)-2-D-methylpropanoyl]-L-proline]
Blood Pressure Response to 400 ng/kg of Angiotensin I (oral 23 μmole/kg, 2 min, Ex. 231): 71 % of Control
Blood Pressure Response to 400 ng/kg of Angiotensin I (oral 23 μmole/kg, 6 min, Ex. 231): 63 % of Control
Blood Pressure Response to 400 ng/kg of Angiotensin I (oral 23 μmole/kg, 16 min, Ex. 231): 49 % of Control
Blood Pressure Response to 400 ng/kg of Angiotensin I (oral 23 μmole/kg, 23 min, Ex. 231): 43 % of Control
Blood Pressure Response to 400 ng/kg of Angiotensin I (oral 23 μmole/kg, 37 min, Ex. 231): 43 % of Control
Blood Pressure Response to 400 ng/kg of Angiotensin I (oral 23 μmole/kg, 48 min, Ex. 231): 40 % of Control
Blood Pressure Response to 400 ng/kg of Angiotensin I (oral 23 μmole/kg, 64 min, Ex. 231): 26 % of Control
Blood Pressure Response to 400 ng/kg of Angiotensin I (oral 23 μmole/kg, 71 min, Ex. 231): 26 % of Control
Blood Pressure Response to 400 ng/kg of Angiotensin I (oral 23 μmole/kg, 84 min, Ex. 231): 37 % of Control
Blood Pressure Response to 400 ng/kg of Angiotensin I (oral 23 μmole/kg, 96 min, Ex. 231): 37 % of Control
Blood Pressure Response to 400 ng/kg of Angiotensin I (oral 23 μmole/kg, 109 min, Ex. 231): 40 % of Control
Blood Pressure Response to 400 ng/kg of Angiotensin I (oral 23 μmole/kg, 124 min, Ex. 231): 54 % of Control
Blood Pressure Response to 400 ng/kg of Angiotensin I (oral 23 μmole/kg, 140 min, Ex. 231): 51 % of Control
Blood Pressure Response to 400 ng/kg of Angiotensin I (oral 23 μmole/kg, 157 min, Ex. 231): 63 % of Control
Blood Pressure Response to 400 ng/kg of Angiotensin I (oral 23 μmole/kg, 171 min, Ex. 231): 77 % of Control

C[C@H](CSC(=O)C(Cc1ccccc1)NC(=O)c1ccccc1)C(=O)N1CCC[C@H]1C(=O)O (stereo partly drawn) [sodium salt of N-alpha[3-(N-alpha-benzoyl-D,L-phenylalanylthio)-2-D-methylpropanoyl]-L-proline]
response vs control in vivo at 10 µmol/kg (5 min, 5 min): 82%
response vs control in vivo at 10 µmol/kg (10 min, 10 min): 33%
response vs control in vivo at 10 µmol/kg (0.25 h, 15 min): 24%
response vs control in vivo at 10 µmol/kg (20 min, 20 min): 27%
response vs control in vivo at 10 µmol/kg (0.5 h, 30 min): 27%
response vs control in vivo at 10 µmol/kg (40 min, 40 min): 22%
response vs control in vivo at 10 µmol/kg (50 min, 50 min): 24%
response vs control in vivo at 10 µmol/kg (1 h, 60 min): 27%
response vs control in vivo at 10 µmol/kg (1.5 h, 90 min): 36%
response vs control in vivo at 10 µmol/kg (2 h, 120 min): 44%
response vs control in vivo at 10 µmol/kg (2.5 h, 150 min): 62%
response vs control in vivo at 10 µmol/kg (3 h, 180 min): 60%
response vs control in vivo at 10 µmol/kg (3.5 h, 210 min): 71%
response vs control in vivo at 10 µmol/kg (4 h, 240 min): 73%
